Assay results taken from ChEMBL document CHEMBL4828709, “Discovery of 2,4-pyrimidinediamine derivatives as potent dual inhibitors of ALK and HDAC” (Eur J Med Chem, 2021).

What was measured:
Histone deacetylase 1 [1] = biological target: T1, Histone deacetylase 1 (Homo sapiens, UniProt Q13547); conditions: Sf9, dose 10.0 nM, time 15.0 min
Histone deacetylase 1 [2] = biological target: T1, Histone deacetylase 1; conditions: Sf9, dose 100.0 nM, time 15.0 min
[3] = biological target: T2, ALK tyrosine kinase receptor (Homo sapiens, UniProt Q9UM73); experiment: Inhibition of ALK (unknown origin) at 10 nM preincubated for 10 mins followed by addition of substrate and ATP for 25 mins by caliper EZ reader method; conditions: time 35.0 min
T2 sequence (Q9UM73 19-1620 limits assumed): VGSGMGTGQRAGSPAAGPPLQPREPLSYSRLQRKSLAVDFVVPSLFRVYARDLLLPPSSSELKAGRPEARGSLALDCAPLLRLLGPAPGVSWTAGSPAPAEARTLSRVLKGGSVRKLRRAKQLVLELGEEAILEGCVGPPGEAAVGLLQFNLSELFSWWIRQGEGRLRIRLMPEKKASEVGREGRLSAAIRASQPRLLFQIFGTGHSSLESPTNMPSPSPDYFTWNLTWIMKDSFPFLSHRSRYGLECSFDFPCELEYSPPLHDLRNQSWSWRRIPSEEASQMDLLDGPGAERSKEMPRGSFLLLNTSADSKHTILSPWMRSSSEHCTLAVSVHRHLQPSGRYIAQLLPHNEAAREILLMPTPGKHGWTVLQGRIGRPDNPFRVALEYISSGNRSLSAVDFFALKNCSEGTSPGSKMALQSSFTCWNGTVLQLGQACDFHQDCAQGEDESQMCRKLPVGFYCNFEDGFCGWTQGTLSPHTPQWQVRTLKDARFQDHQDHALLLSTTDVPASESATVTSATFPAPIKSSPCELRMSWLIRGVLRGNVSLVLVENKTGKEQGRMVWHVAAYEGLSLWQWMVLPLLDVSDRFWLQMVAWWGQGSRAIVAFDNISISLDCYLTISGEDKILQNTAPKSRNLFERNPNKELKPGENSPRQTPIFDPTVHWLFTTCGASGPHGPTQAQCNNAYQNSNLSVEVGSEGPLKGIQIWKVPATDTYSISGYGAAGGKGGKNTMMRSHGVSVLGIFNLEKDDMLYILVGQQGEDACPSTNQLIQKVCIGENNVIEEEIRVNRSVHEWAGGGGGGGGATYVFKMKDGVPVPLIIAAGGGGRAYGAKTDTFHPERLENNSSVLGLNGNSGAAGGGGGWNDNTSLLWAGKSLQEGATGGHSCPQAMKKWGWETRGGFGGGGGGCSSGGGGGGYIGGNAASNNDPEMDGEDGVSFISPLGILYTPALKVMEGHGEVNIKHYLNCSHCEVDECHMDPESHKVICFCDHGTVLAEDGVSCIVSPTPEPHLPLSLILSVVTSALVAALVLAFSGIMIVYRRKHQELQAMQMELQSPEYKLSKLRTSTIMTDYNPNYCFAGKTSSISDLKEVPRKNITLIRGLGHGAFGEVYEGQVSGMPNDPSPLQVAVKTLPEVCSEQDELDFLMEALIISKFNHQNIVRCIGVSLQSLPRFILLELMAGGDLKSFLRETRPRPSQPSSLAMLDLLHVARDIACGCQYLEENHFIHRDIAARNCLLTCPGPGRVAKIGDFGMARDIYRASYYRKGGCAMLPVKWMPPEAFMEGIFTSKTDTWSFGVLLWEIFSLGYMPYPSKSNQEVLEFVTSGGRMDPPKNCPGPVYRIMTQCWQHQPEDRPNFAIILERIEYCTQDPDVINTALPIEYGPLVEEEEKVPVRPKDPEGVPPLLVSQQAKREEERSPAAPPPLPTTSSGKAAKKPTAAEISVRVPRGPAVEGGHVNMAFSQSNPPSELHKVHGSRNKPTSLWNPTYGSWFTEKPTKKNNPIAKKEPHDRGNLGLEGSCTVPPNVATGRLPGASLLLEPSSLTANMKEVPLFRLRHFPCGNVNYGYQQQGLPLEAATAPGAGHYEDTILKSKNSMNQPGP

[4] = biological target: T2, ALK tyrosine kinase receptor; experiment: Inhibition of ALK (unknown origin) at 100 nM preincubated for 10 mins followed by addition of substrate and ATP for 25 mins by caliper EZ reader method; conditions: time 35.0 min

T1 sequence (Q13547 whole entry): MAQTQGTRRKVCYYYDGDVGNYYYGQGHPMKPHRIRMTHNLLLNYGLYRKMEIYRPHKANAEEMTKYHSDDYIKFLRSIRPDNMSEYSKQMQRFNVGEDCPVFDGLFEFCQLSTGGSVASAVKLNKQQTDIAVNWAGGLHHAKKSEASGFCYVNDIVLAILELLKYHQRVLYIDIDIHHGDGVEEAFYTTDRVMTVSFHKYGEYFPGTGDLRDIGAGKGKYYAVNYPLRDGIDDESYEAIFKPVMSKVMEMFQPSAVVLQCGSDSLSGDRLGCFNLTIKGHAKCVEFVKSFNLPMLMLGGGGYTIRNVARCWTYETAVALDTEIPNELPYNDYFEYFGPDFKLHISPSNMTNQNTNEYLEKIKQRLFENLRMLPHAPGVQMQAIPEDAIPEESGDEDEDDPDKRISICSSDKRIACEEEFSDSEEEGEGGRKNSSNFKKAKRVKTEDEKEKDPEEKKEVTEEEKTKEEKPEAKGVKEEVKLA

Row | inhibition (Histone deacetylase 1 [1]) [%] | inhibition (Histone deacetylase 1 [2]) [%] | inhibition [3] [%] | inhibition [4] [%] | Compound
1 | 35 | 78 | 98.1 | 101 | Cc1cc(Nc2ncc(Cl)c(Nc3ccccc3S(=O)(=O)C(C)C)n2)ccc1C(=O)NCCCCCCC(=O)NO
2 | 52 | 90 | 86.5 | 98.8 | CC(C)S(=O)(=O)c1ccccc1Nc1nc(Nc2ccc(NC(=O)CCCCCC(=O)NO)cc2)ncc1Cl
3 | 67 | 88 | 0.2 | 25 | O=C(CCCCCCC(=O)Nc1ccc(Nc2ncc(Cl)c(Nc3ccccc3Br)n2)cc1)NO
4 | 0.1 |  | 81.1 |  | CC(C)S(=O)(=O)c1ccccc1Nc1nc(Nc2ccc(C(=O)NO)cc2)ncc1Cl
5 | 8 | 31 | 85.2 | 98.8 | CC(C)S(=O)(=O)c1ccccc1Nc1nc(Nc2ccc(C(=O)NCCCCC(=O)NO)cc2)ncc1Cl
6 | 67 | 90 | 3.1 | 21.2 | O=C(CCCCCCC(=O)Nc1ccc(Nc2ncc(Cl)c(Nc3ccccc3Cl)n2)cc1)NO
7 | 41 | 84 | 82.6 | 96.6 | CC(C)S(=O)(=O)c1ccccc1Nc1nc(Nc2cccc(C(=O)NCCCCCCC(=O)NO)c2)ncc1Cl
8 | 56 | 89 | 4.9 | 7.6 | COc1cccc(Nc2nc(Nc3ccc(NC(=O)CCCCCCC(=O)NO)cc3)ncc2C(F)(F)F)c1
9 | -1 | 4 | 81 | 99.1 | CC(C)S(=O)(=O)c1ccccc1Nc1nc(Nc2cccc(C(=O)NCCC(=O)NO)c2)ncc1Cl
10 | 45 | 86 | 97.3 | 98.5 | COc1cc(C(=O)NCCCCCC(=O)NO)ccc1Nc1ncc(Cl)c(Nc2ccccc2S(=O)(=O)C(C)C)n1
11 | -2 |  |  |  | CC(C)S(=O)(=O)c1ccccc1Nc1nc(Nc2ccc(NC(=O)CCC(=O)NO)cc2)ncc1Cl
12 | -1 | 3 | 86.7 | 97.3 | CC(C)S(=O)(=O)c1ccccc1Nc1nc(Nc2ccc(C(=O)NCCC(=O)NO)cc2)ncc1Cl
13 | -3 |  |  |  | CC(C)S(=O)(=O)c1ccccc1Nc1nc(Nc2cccc(C(=O)NO)c2)ncc1Cl
14 |  |  | -0.7 | 4.9 | COc1ccc(C)c(Nc2nc(Nc3ccc(NC(=O)CCCCCCC(=O)NO)cc3)ncc2Cl)c1
15 | 45 | 93 | 87.7 | 97.8 | CC(C)S(=O)(=O)c1ccccc1Nc1nc(Nc2ccc(C(=O)NCCCCCC(=O)NO)c(Cl)c2)ncc1Cl
16 | 86 | 97 | 7.2 | 30.1 | Cc1ccc(Nc2nc(Nc3ccc(NC(=O)CCCCCCC(=O)NO)cc3)ncc2Cl)cc1
17 | 8 | 39 | 76.9 | 98.5 | Cc1ccc(Nc2ncc(Cl)c(Nc3ccccc3S(=O)(=O)C(C)C)n2)cc1NC(=O)CCCCC(=O)NO
18 | 23 | 65 | 81 | 97.7 | CC(C)S(=O)(=O)c1ccccc1Nc1nc(Nc2cccc(C(=O)NCCCCC(=O)NO)c2)ncc1Cl
19 | 84 | 99 | 4.9 | 36.9 | O=C(CCCCCCC(=O)Nc1ccc(Nc2ncc(Cl)c(Nc3ccccc3)n2)cc1)NO
20 | -10 | -7 | 92.1 | 98.2 | CC(C)S(=O)(=O)c1ccccc1Nc1nc(Nc2ccc(NC(=O)CC(=O)NO)cc2)ncc1Cl
21 | 38 | 83 | 87 | 98.1 | CC(C)S(=O)(=O)c1ccccc1Nc1nc(Nc2cccc(NC(=O)CCCC(=O)NO)c2)ncc1Cl

Row | inhibition (Histone deacetylase 1 [1]) [%] | inhibition (Histone deacetylase 1 [2]) [%] | inhibition [3] [%] | inhibition [4] [%] | Compound
22 | -2 | 4 | 91.2 | 97.9 | CC(C)S(=O)(=O)c1ccccc1Nc1nc(Nc2ccc(C(=O)NCCCC(=O)NO)cc2)ncc1Cl
23 | 4 | 17 | 87.6 | 98.5 | CC(C)S(=O)(=O)c1ccccc1Nc1nc(Nc2ccc(NC(=O)CCCC(=O)NO)cc2)ncc1Cl
24 | 55 | 101 | 89.4 | 98.1 | CC(C)S(=O)(=O)c1ccccc1Nc1nc(Nc2ccc(C(=O)NCCCCCC(=O)NO)cc2)ncc1Cl
25 | 26 | 74 | 99 | 101 | COc1cc(Nc2ncc(Cl)c(Nc3ccccc3S(=O)(=O)C(C)C)n2)ccc1C(=O)NCCCCCC(=O)NO
26 | 35 | 84 | 83.2 | 97.3 | CC(C)S(=O)(=O)c1ccccc1Nc1nc(Nc2cccc(C(=O)NCCCCCC(=O)NO)c2)ncc1Cl
27 | 83 | 97 | 1.2 | 20 | COc1cccc(Nc2nc(Nc3ccc(NC(=O)CCCCCCC(=O)NO)cc3)ncc2Cl)c1
28 | 10 | 41 | 87.2 | 98 | CC(C)S(=O)(=O)c1ccccc1Nc1nc(Nc2cccc(NC(=O)CCCCC(=O)NO)c2)ncc1Cl
29 | 58 | 96 | 93.1 | 97.3 | Cc1cc(C(=O)NCCCCCC(=O)NO)ccc1Nc1ncc(Cl)c(Nc2ccccc2S(=O)(=O)C(C)C)n1
30 | 55 | 86 | 89.4 | 98 | CC(C)S(=O)(=O)c1ccccc1Nc1nc(Nc2cccc(NC(=O)CCCCCC(=O)NO)c2)ncc1Cl
31 | 63 | 93 | 83.5 | 97.9 | Cc1cnc(Nc2ccc(NC(=O)CCCCCCC(=O)NO)cc2)nc1Nc1ccccc1S(=O)(=O)C(C)C
32 | 48 | 93 | 97.8 | 102 | Cc1cc(Nc2ncc(Cl)c(Nc3ccccc3S(=O)(=O)C(C)C)n2)ccc1C(=O)NCCCCCC(=O)NO
33 | 4 | 44 | 85.7 | 98 | CC(C)S(=O)(=O)c1ccccc1Nc1nc(Nc2cccc(C(=O)NCCCC(=O)NO)c2)ncc1Cl
34 | 0 | 3 | 71.6 | 101 | CC(C)S(=O)(=O)c1ccccc1Nc1nc(Nc2ccc(/C=C/C(=O)NO)cc2)ncc1Cl
35 | 65 | 94 | 3.1 | 17.6 | COc1ccc(Nc2nc(Nc3ccc(NC(=O)CCCCCCC(=O)NO)cc3)ncc2Cl)cc1OC
36 | 91 | 99 | 1.2 | 27.8 | Cc1ccccc1Nc1nc(Nc2ccc(NC(=O)CCCCCCC(=O)NO)cc2)ncc1Cl
37 | 68 | 91 | 60.4 | 94.9 | COc1cnc(Nc2ccc(NC(=O)CCCCCCC(=O)NO)cc2)nc1Nc1ccccc1S(=O)(=O)C(C)C
38 | 7 | 49 | 86.8 | 98.5 | Cc1c(Nc2ncc(Cl)c(Nc3ccccc3S(=O)(=O)C(C)C)n2)cccc1C(=O)NCCCCCC(=O)NO
39 | 24 | 67 | 70.3 | 100 | CC(C)S(=O)(=O)c1ccccc1Nc1nc(Nc2ccc(C(=O)NCCCCCCC(=O)NO)c(Cl)c2)ncc1Cl
40 |  |  | 0.2 | 4.9 | Cc1cccc(Nc2nc(Nc3ccc(NC(=O)CCCCCCC(=O)NO)cc3)ncc2Cl)c1
41 | -8 | 20 | 84.7 | 99 | CC(C)S(=O)(=O)c1ccccc1Nc1nc(Nc2ccc(NC(=O)CCCCC(=O)NO)cc2)ncc1Cl
42 | 70 | 94 | 66.3 | 96 | CC(C)S(=O)(=O)c1ccccc1Nc1nc(Nc2ccc(NC(=O)CCCCCCC(=O)NO)cc2)ncc1F
